# According to US12568998B2, “Flavouring composition with balanced taste profile” (SYMRISE AG, priority 2021, dated 2026):
# “Also recorded” adds a separate entry of the source.
# Key:
# [1] = Sensory descriptive analysis of ice tea prototypes, sweetness factor (Example 1); settings: HC 10 ppm and/or HT 3 ppm
# [2] = Sensory profiling of ice tea preparation, HT/HC ratio 1:3.33 (Example 2); settings: tea base, 4 wt.-% HFCS, 0.10 wt.-% citric acid, HT 3 ppm and/or HC 10 ppm; for Acidity / Balance / Bitter / Complexity / Fruity-Juicy / Long lasting / Off-Notes / Onset Sweetness / Overall Sweetness / Syrupy / Tea: line scale (10 cm)
# Method: In order to further validate the insights derived from Example 1, the interaction and main effects of HT and HC are to be shown in a setup in which a drinkable preparation with a tea base, 0.05 wt.-% lemon flavor, 4 wt.-% high fructose corn syrup, 0.1 wt.-% citric acid and 0.03 wt.-% trisodium citrate was prepared. That preparation was divided into four samples by varying the dosage of HC and HT resulting in one sample containing no HC and no HT (control), containing 10 ppm HC and no HT (HC main effect), containing no HC and 3 ppm HT (HT main effect) and, respectively, containing 10 ppm HC and 3 ppm HT (HT×HC interaction effect). […] The final preparations were profiled by an expert panel consisting of ten educated panelists (two measurements). Different sensorial attributes (ice tea language with focus on sweetness) were assessed and scored on an unstructured line scale (10 cm) for its perceived intensity. The results of the testing are shown below in Table 2 as well as in FIG. 1 and FIG. 2.
# [3] = Sensory profiling of ice tea preparation, HT/HC ratios 1:1 and 1:6 (Example 4); settings: tea base, 5 wt.-% HFCS, 0.18 wt.-% citric acid, line scale (10 cm)
# Method: In order to further validate the insights derived from Example 1 and 2, the interaction and main effects of HT and HC are to be shown in a setup in which a drinkable preparation with a tea base, 0.05 wt.-% lemon flavor, 5 wt.-% high fructose corn syrup, 0.18 wt.-% citric acid and 0.03 wt.-% trisodium citrate was prepared. That preparation was divided into four samples by varying the dosage of HT and HC resulting in one sample containing no HT and no HC (control), containing 5 or 3 ppm HT and no HC (HT main effect), containing no HT and 5 or 18 ppm HC (HC main effect) and, respectively, containing 5 or 3 ppm HT and or 18 ppm HC (HT×HC interaction effect). […] The final preparations were profiled by an expert panel consisting of seven educated panelists (two measurements). Different sensorial attributes (ice tea language with focus on sweetness) were assessed and scored on an unstructured line scale (10 cm) for its perceived intensity. The results of the testing are shown below in Table 4 and 5 as well as in FIG. 4 to FIG. 7.
# [4] = Dosing tests with an excess of hesperetin, sensory ranking (Example 3)
# Method: A drinkable preparation with 7 wt.-% sucrose and 0.15 wt.-% citric acid was prepared. This preparation was used as a base composition for dosing tests with different dosing regimens of hesperetin dihydrochalcone and hesperetin. The different samples were evaluated by an expert panel consisting of five educated panelists and ranked on a scale from 0 to 9. The results of the testing are shown below in Table 3 as well as in FIG. 3.
# [5] = J. Chem. Senses 1979, 4(1), 35-47; cited from earlier work
# [6] = Acesulfame K Ice tea Base, 60 ppm
# [7] = HFCS Ice tea Base, 2 wt. % High Fructose corn sirup
# [8] = Invert Sugar Syrup Ice tea Base, 2 wt. % invert sugar syrup
# [9] = Reb A Ice tea Base, 60 ppm rebaudioside A
# [10] = Reb A/Reb D Ice tea Base, 60 ppm rebaudioside A/60 ppm rebaudioside D
# [11] = Reb A/Reb M Ice tea Base, 60 ppm rebaudioside A/45 ppm rebaudioside M
# [12] = Reb M/Reb D Ice tea Base, 45 ppm rebaudioside M/60 ppm rebaudioside D
# [13] = Sucralose Ice tea Base, 100 ppm sucralose
# [14] = Sugar Free Ice tea Base, no added sugar/sweetener
structure (smiles),measurement,setting,value
"COc1ccc(CCC(=O)c2c(O)cc(O)cc2O)cc1O [HC, hesperetin dihydrochalcone]",ANOVA (sweetness factor),[1]; [6],−0.1
same,ANOVA (sweetness factor),[1]; [7],−0.9
same,ANOVA (sweetness factor),[1]; [8],−1
same,ANOVA (sweetness factor),[1]; [9],−0.5
same,ANOVA (sweetness factor),[1]; [10],−0.1
same,ANOVA (sweetness factor),[1]; [11],0
same,ANOVA (sweetness factor),[1]; [12],−0.3
same,ANOVA (sweetness factor),[1]; [13],−0.8
same,ANOVA (sweetness factor),[1]; [14],−1.3
same,Remarks,[2],"lingering,; also recorded: sweetener"
same,Acidity,[2],3.22
same,Balance,[2],3.50
same,Bitter,[2],2.58
same,Complexity,[2],3.62
same,Fruity-Juicy,[2],3.88
same,Long lasting,[2],3.90
same,Off-Notes,[2],2.25
same,Onset Sweetness,[2],4.39
same,Overall Sweetness,[2],4.80
same,Syrupy,[2],3.70
same,Tea,[2],4.08
same,Acidity,[3]; HT 3 ppm and/or HC 18 ppm,3.12
same,Balance,[3]; HT 3 ppm and/or HC 18 ppm,3.66
same,Bitter,[3]; HT 3 ppm and/or HC 18 ppm,1.94
same,Complexity,[3]; HT 3 ppm and/or HC 18 ppm,4.58
same,Fruity-Juicy,[3]; HT 3 ppm and/or HC 18 ppm,4.27
same,Long lasting,[3]; HT 3 ppm and/or HC 18 ppm,4.20
same,Off-Notes,[3]; HT 3 ppm and/or HC 18 ppm,1.01
same,Onset Sweetness,[3]; HT 3 ppm and/or HC 18 ppm,4.99
same,Overall Sweetness,[3]; HT 3 ppm and/or HC 18 ppm,5.60
same,Syrupy,[3]; HT 3 ppm and/or HC 18 ppm,4.32
same,Tea,[3]; HT 3 ppm and/or HC 18 ppm,4.01
same,Acidity,[3]; HT 5 ppm and/or HC 5 ppm,3.46
same,Balance,[3]; HT 5 ppm and/or HC 5 ppm,3.68
same,Bitter,[3]; HT 5 ppm and/or HC 5 ppm,1.93
same,Complexity,[3]; HT 5 ppm and/or HC 5 ppm,3.90
same,Fruity-Juicy,[3]; HT 5 ppm and/or HC 5 ppm,4.68
same,Long lasting,[3]; HT 5 ppm and/or HC 5 ppm,3.11
same,Off-Notes,[3]; HT 5 ppm and/or HC 5 ppm,0.70
same,Onset Sweetness,[3]; HT 5 ppm and/or HC 5 ppm,4.19
same,Overall Sweetness,[3]; HT 5 ppm and/or HC 5 ppm,4.46
same,Syrupy,[3]; HT 5 ppm and/or HC 5 ppm,3.96
same,Tea,[3]; HT 5 ppm and/or HC 5 ppm,4.11
"COc1ccc([C@@H]2CC(=O)c3c(O)cc(O)cc3O2)cc1O [HT, hesperetin]",ANOVA (sweetness factor),[1]; [6],−2.4
same,ANOVA (sweetness factor),[1]; [7],−3.2
same,ANOVA (sweetness factor),[1]; [8],−3.3
same,ANOVA (sweetness factor),[1]; [9],−2.8
same,ANOVA (sweetness factor),[1]; [10],−2.4
same,ANOVA (sweetness factor),[1]; [11],−2.3
same,ANOVA (sweetness factor),[1]; [12],−2.6
same,ANOVA (sweetness factor),[1]; [13],−3.1
same,ANOVA (sweetness factor),[1]; [14],−3.6
same,Acidity,[2],3.71
same,Balance,[2],3.20
same,Bitter,[2],2.93
same,Complexity,[2],3.06
same,Fruity-Juicy,[2],3.60
same,Long lasting,[2],2.32
same,Off-Notes,[2],1.85
same,Onset Sweetness,[2],3.14
same,Overall Sweetness,[2],3.39
same,Syrupy,[2],2.67
same,Tea,[2],4.30
same,hesperetin concentration exhibiting off-tastes in the preparation,[4],more than 30 ppm
same,Acidity,[3]; HT 3 ppm and/or HC 18 ppm,4.11
same,Balance,[3]; HT 3 ppm and/or HC 18 ppm,3.24
same,Bitter,[3]; HT 3 ppm and/or HC 18 ppm,2.21
same,Complexity,[3]; HT 3 ppm and/or HC 18 ppm,3.99
same,Fruity-Juicy,[3]; HT 3 ppm and/or HC 18 ppm,4.19
same,Long lasting,[3]; HT 3 ppm and/or HC 18 ppm,2.61
same,Off-Notes,[3]; HT 3 ppm and/or HC 18 ppm,0.77
same,Onset Sweetness,[3]; HT 3 ppm and/or HC 18 ppm,4.22
same,Overall Sweetness,[3]; HT 3 ppm and/or HC 18 ppm,4.53
same,Syrupy,[3]; HT 3 ppm and/or HC 18 ppm,3.72
same,Tea,[3]; HT 3 ppm and/or HC 18 ppm,4.39
same,Acidity,[3]; HT 5 ppm and/or HC 5 ppm,4.06
same,Balance,[3]; HT 5 ppm and/or HC 5 ppm,3.94
same,Bitter,[3]; HT 5 ppm and/or HC 5 ppm,1.87
same,Complexity,[3]; HT 5 ppm and/or HC 5 ppm,3.87
same,Fruity-Juicy,[3]; HT 5 ppm and/or HC 5 ppm,4.32
same,Long lasting,[3]; HT 5 ppm and/or HC 5 ppm,2.79
same,Off-Notes,[3]; HT 5 ppm and/or HC 5 ppm,0.58
same,Onset Sweetness,[3]; HT 5 ppm and/or HC 5 ppm,3.89
same,Overall Sweetness,[3]; HT 5 ppm and/or HC 5 ppm,4.07
same,Syrupy,[3]; HT 5 ppm and/or HC 5 ppm,3.59
same,Tea,[3]; HT 5 ppm and/or HC 5 ppm,4.16
COc1ccc(CCC(=O)c2ccccc2O)cc1O [dihydrochalcone (1)],taste,[5],intensively sweet tasting
COc1ccc(CCC(=O)c2c(O)cccc2O)cc1O [dihydrochalcone (2)],taste,[5],tasteless
